Data from patent US20150064710A1, “METHOD FOR INHIBITING CELL GROWTH, NUCLEIC ACID MOLECULE HAVING RNA INTERFERENCE EFFECT ON NEK10 VARIANT GENE, AND ANTICANCER AGENT” (Nippon Kayaku Kabushiki Kaisha, priority 2011, published 2015).

How the values were obtained:
MDA-MB-231 cells = assay: Growth inhibitory effect of NEK10 siRNA on cancer cells (methylene blue assay); assay type: cell-based; details: MDA-MB-231 breast cancer cells; 72 hours after siRNA transfection; absorbance at 660 nm; control siRNA treatment group of first experiment = 100
Description: NEK10 siRNA #1 and NEK10 siRNA #2 were confirmed to have growth inhibitory effects on cancer cells. Namely, a study was conducted by methylene blue assay to determine whether cell growth is inhibited by knocking down NEK10 variant gene by transfecting the cells with NEK10 siRNA #1 and NEK10 siRNA #2.
MDA-MB-231 cells were transfected with each siRNA in the same manner as previously described (Confirmation of Expression Inhibitory Effect on NEK10 Variant mRNA) followed by culturing for 72 hours after transfection. After culturing, the medium was removed followed by the addition of 1000 μL of methanol and allowing to stand for 2 minutes at room temperature to fix the cells. After removing the methanol, 1000 μL of dye solution (0.05% methylene blue solution) were added followed by dyeing for 30 minutes. After washing three times with 4 mL of distilled water, 2 mL of a 3% HCl solution were added followed by measurement of the absorbance of methylene blue at 660 nm using a microplate reader (BioRad).
The experiment was conducted in triplicate and the same experiment was repeated three times. The average triplicate value of the control siRNA treatment group of the first experiment was used as a control, the cell growth rates (%) were calculated according to the following Equation (5) using the average triplicate values of the siRNA treatment group of each experiment. […]

NEK10 variant mRNA = assay: Expression inhibitory effect on NEK10 variant mRNA (real-time PCR using SYBR Green after siRNA transfection); assay type: cell-based, human; details: breast cancer cell line MDA-MB-231; siRNA (20 nM) with Lipofectamine RNAiMAX; 72 hours culture after transfection; first control siRNA treatment group = 100
Excerpt: After carrying out siRNA treatment by transfecting cells with siRNA consisting of the combination of sense RNA consisting of the base sequence represented by SEQ ID NO: 2 and antisense RNA consisting of the base sequence represented by SEQ ID NO: 3 (to be referred to as NEK10 siRNA #1) and siRNA consisting of the combination of sense RNA consisting of the base sequence represented by SEQ ID NO: 4 and antisense RNA consisting of the base sequence represented by SEQ ID NO: 5 (to be referred to as NEK10 siRNA #2), NEK10 variant mRNA was measured by real-time PCR using SYBR™ Green to study the knockdown effects on NEK10 variant mRNA.
Breast cancer cell line MDA-MB-231, which was confirmed to express NEK10 variant mRNA in Example 1, was transfected with control siRNA, NEK10 siRNA #1 or NEK10 siRNA #2, and NEK10 variant mRNA following siRNA treatment was measured by real-time PCR using SYBR™ Green to study the knockdown effects on NEK10 variant mRNA of each siRNA. The control siRNA was purchased from Invitrogen, and siRNA synthesized by Invitrogen was used for NEK10 siRNA #1 and NEK10 siRNA #2. […]
Using 500 ng of the purified RNA, cDNA was prepared in the same manner as Reference Example 1 using the reverse transcriptase Superscript III (Invitrogen). Ct values were measured in the same manner as Reference Example 1 using 1 μL of the resulting cDNA as template. […]

NEK10 siRNA #1: siRNA of sense RNA SEQ ID NO: 2 (5'-GAAAUCCUGUCAGAUGAUAACUUCA-3') and antisense RNA SEQ ID NO: 3 (antisense UGAAGUUAUCAUCUGACAGGAUUUC; RNA, backbone not given here)
cell growth rate (MDA-MB-231 cells): 34±14% | percentage of NEK10 mRNA versus the control (NEK10 variant mRNA): 11±0.5%

NEK10 siRNA #2: siRNA of sense RNA SEQ ID NO: 4 (5'-UCUGCCUUGUUUGUUCACCACUAUU-3') and antisense RNA SEQ ID NO: 5 (antisense AAUAGUGGUGAACAAACAAGGCAGA; RNA, backbone not given here)
cell growth rate (MDA-MB-231 cells): 58±17% | percentage of NEK10 mRNA versus the control (NEK10 variant mRNA): 86±7.4%
